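Exposure lasted 48 hours, with cells grown in 96-well plates and compounds tested at five concentrations. Abbreviation: GI50, concentration required for 50% inhibition of growth. TGI: total growth inhibition.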

Drawing on PubChem BioAssay (NCI), this text covers TGI and GI50 for eleven compounds.

Some test systems named below: CCRF-CEM leukemia; SF-295 CNS; UACC-257 melanoma; RPMI-8226 leukemia; K-562 leukemia; COLO 205 colon; OVCAR-4 ovarian; SK-MEL-5 melanoma; SNB-19 CNS; EKVX NSCLC.
Common to all, as to assay: NCI tumour cell line growth inhibition, 48 h

As to `Cc1cccc(C)c1NC(=O)C(=O)Cc1nc2ccccc2s1`, the TGI in the test with CCRF-CEM leukemia, with SF-295 CNS, with UACC-257 melanoma, in the test on RPMI-8226 leukemia, with K-562 leukemia and in the test on COLO 205 colon was greater than 100 µM each time. Further, the TGI in the test with OVCAR-4 ovarian, in the test on SK-MEL-5 melanoma, in the test on SNB-19 CNS and in the test with EKVX NSCLC was greater than 100 µM in each case.

For the compound `O=C(CC1=Nc2nnc(CCCCCCCc3nnc4n3C(=O)C(CC(=O)c3ccc5ccccc5c3)=N4)n2C1=O)c1ccc2ccccc2c1`, the TGI in the test with CCRF-CEM leukemia, with SF-295 CNS, in the test with UACC-257 melanoma, in the test on RPMI-8226 leukemia, in the test on K-562 leukemia and in the test with COLO 205 colon was greater than 100 µM throughout. In addition, the TGI in the test with OVCAR-4 ovarian, in the test with SNB-19 CNS and in the test with EKVX NSCLC was greater than 100 µM each time.

In the case of `Cc1cc(Cl)ccc1NC(=O)CCCC(=O)C1C/C(=N/O)CC/C1=N\O` (stereo not drawn), the TGI with CCRF-CEM leukemia, in the test with SF-295 CNS, with UACC-257 melanoma, in the test on RPMI-8226 leukemia, with K-562 leukemia and in the test on COLO 205 colon was greater than 100 µM throughout. Also, the TGI in the test on OVCAR-4 ovarian, in the test with SK-MEL-5 melanoma, in the test on SNB-19 CNS and in the test on EKVX NSCLC was greater than 100 µM in each case.

For `COC1(OC)C2(Cl)C3=CCCC=C3C1(Cl)C(Cl)=C2Cl`, the TGI in the test on CCRF-CEM leukemia was 42.4 µM; in the test on SF-295 CNS, 74.2 µM; with UACC-257 melanoma it was 75.1 µM; in the test with RPMI-8226 leukemia, 34 µM; in the test with COLO 205 colon, 37.7 µM; in the test with OVCAR-4 ovarian it was greater than 100 µM. Moreover, the TGI is 29.2 µM in the test on SK-MEL-5 melanoma, greater than 100 µM in the test with SNB-19 CNS and 71.5 µM in the test with EKVX NSCLC.

Turning to `C/C(=N/NC(=S)Nc1ccccc1)c1nc2ccc(Cl)cc2[nH]1`, the GI50 is 0.039 µM in the test on CCRF-CEM leukemia; 0.236 µM in the test on UACC-257 melanoma; 0.202 µM in the test on RPMI-8226 leukemia; 0.147 µM in the test on K-562 leukemia; 0.0466 µM in the test with OVCAR-4 ovarian; 0.0989 µM in the test with SK-MEL-5 melanoma. Besides, the GI50 in the test with SNB-19 CNS is 0.25 µM; with EKVX NSCLC it was 0.1 µM. The TGI with CCRF-CEM leukemia worked out at 7.18 µM; in the test with UACC-257 melanoma it was 0.85 µM; in the test on RPMI-8226 leukemia, 3.36 µM; in the test on K-562 leukemia, 13.4 µM; in the test with OVCAR-4 ovarian, 2.42 µM; with SK-MEL-5 melanoma it was 0.457 µM. The TGI in the test on SNB-19 CNS came to 1.71 µM; in the test on EKVX NSCLC, 0.959 µM.

In the case of `Oc1ccc(Cl)cc1C=Nc1cnc2ccccc2c1`, the TGI in the test with CCRF-CEM leukemia was 7.1 µM; with SF-295 CNS, greater than 100 µM; in the test with UACC-257 melanoma, 45.3 µM; in the test with RPMI-8226 leukemia, 85.6 µM; in the test with K-562 leukemia it was greater than 100 µM; in the test on COLO 205 colon, greater than 100 µM. The TGI with OVCAR-4 ovarian is greater than 100 µM; in the test with SK-MEL-5 melanoma, greater than 90 µM; with SNB-19 CNS, greater than 100 µM; with EKVX NSCLC it was greater than 86 µM.

For the compound `CN1CCN(C2=NC(=O)/C(=C\c3ccc(N(C)C)cc3)S2)CC1`, the GI50 in the test with CCRF-CEM leukemia was 38.4 µM; with SF-295 CNS, greater than 100 µM; with UACC-257 melanoma, greater than 100 µM; with RPMI-8226 leukemia, 32.5 µM; in the test with K-562 leukemia, greater than 100 µM; in the test with COLO 205 colon, greater than 100 µM. Besides, the GI50 in the test on OVCAR-4 ovarian, in the test with SK-MEL-5 melanoma, in the test with SNB-19 CNS and in the test with EKVX NSCLC was greater than 100 µM each time. Moreover, the TGI in the test with CCRF-CEM leukemia, in the test on SF-295 CNS, in the test with UACC-257 melanoma, with RPMI-8226 leukemia, in the test with K-562 leukemia and in the test on COLO 205 colon was greater than 100 µM in each case. The TGI in the test on OVCAR-4 ovarian, with SK-MEL-5 melanoma, in the test on SNB-19 CNS and with EKVX NSCLC was greater than 100 µM in each case.

For the compound `COc1cc2c(/C=C3\C(=O)Nc4ccccc43)c[nH]c2cc1C`, the GI50 in the test on CCRF-CEM leukemia was 0.0196 µM; with SF-295 CNS, 0.227 µM; in the test with UACC-257 melanoma, less than 0.01 µM; in the test on RPMI-8226 leukemia, 0.0393 µM; in the test with K-562 leukemia it was 0.225 µM; with COLO 205 colon, 0.118 µM. Also, the GI50 in the test on SK-MEL-5 melanoma was less than 0.015 µM; with SNB-19 CNS, 0.112 µM; with EKVX NSCLC, 0.0559 µM. The TGI with CCRF-CEM leukemia was found to be 0.0734 µM; in the test on SF-295 CNS, 1.65 µM; in the test with UACC-257 melanoma it was 26 µM; in the test with RPMI-8226 leukemia it was 16.2 µM; in the test with K-562 leukemia, 61.4 µM; in the test with COLO 205 colon it was 4.39 µM. The TGI in the test with SK-MEL-5 melanoma turned out to be 1.89 µM; in the test on SNB-19 CNS, 32.3 µM; with EKVX NSCLC, 26.5 µM.

For `N=C1CCCC1C(=S)SCCC(N)=O` (stereo not drawn), the TGI in the test with CCRF-CEM leukemia, in the test on SF-295 CNS, in the test with UACC-257 melanoma, in the test with RPMI-8226 leukemia, in the test with COLO 205 colon and in the test on OVCAR-4 ovarian was greater than 100 µM in each case. Also, the TGI in the test with SK-MEL-5 melanoma, in the test with SNB-19 CNS and in the test on EKVX NSCLC was greater than 100 µM each time.

Turning to `O=C1CC23CCCCCCCCCCC2(C1)CC(=O)C3` (stereo not drawn), the TGI was 44.4 µM in the test with CCRF-CEM leukemia; greater than 100 µM with SF-295 CNS; greater than 100 µM in the test on UACC-257 melanoma; 45.4 µM with RPMI-8226 leukemia; 73.3 µM in the test with K-562 leukemia; 33.5 µM in the test with COLO 205 colon. Moreover, the TGI is 32.4 µM in the test with SK-MEL-5 melanoma, 76.3 µM in the test with SNB-19 CNS and greater than 100 µM with EKVX NSCLC.

For the compound `COc1ccc(-n2c(=S)sc3c(Cl)nc(C)nc32)c(OC)c1`, the GI50 in the test on CCRF-CEM leukemia is 2.66 µM; in the test on SF-295 CNS, 7.06 µM; with UACC-257 melanoma it was 2.35 µM; in the test with RPMI-8226 leukemia it was 3.45 µM; in the test with K-562 leukemia, 1.19 µM; with COLO 205 colon, 3.83 µM. In addition, the GI50 with OVCAR-4 ovarian was 4.73 µM; in the test with SNB-19 CNS, 2.4 µM; with EKVX NSCLC it was 4.55 µM. Moreover, the TGI was found to be 7.45 µM with CCRF-CEM leukemia; 20.1 µM in the test with SF-295 CNS; 5.62 µM with UACC-257 melanoma; 14 µM in the test on RPMI-8226 leukemia; 3.79 µM with K-562 leukemia; 13.3 µM in the test with COLO 205 colon. The results for the TGI in the test with OVCAR-4 ovarian, in the test with SNB-19 CNS and in the test with EKVX NSCLC were 15.6 µM, 5.42 µM and 17 µM, respectively.
